Data from patent publication US20260069588A1, “VEPDEGESTRANT FOR USE IN TREATING CANCER” (Arvinas Operation, Inc., priority 2022, published 2026).
≈ marks a conversion by molar mass, not a printed value.

How the values were obtained:
[1] = Tablet performance in fed and fasted dogs; type: in vivo, dog; details: 50 mg tablet QD, fed vs fasted
Description: For 6 days, dogs received a single 50 mg tablet QD after pre-treatment with pentagastrin. Little accumulation was observed over the course of the study. In addition, exposure in chow-fed dogs was similar to that obtained for solution formulations administered at a similar dose. To reduce the pill burden, a 100 mg tablet was developed and when tested in dogs, similar exposure was observed when dogs were dosing with a 50 mg tablet.

[2] = Preclinical PK after PO or intravenous dose; set-up: species or system mouse, dog, and monkey; details: rat, in vivo
SALL4 = molecular target: T1, SALL4 (Homo sapiens, UniProt Q9UJQ4); assay: Cereblon neomorphic substrate degradation, SALL4; type: cell-based
T1 construct: host or cells: two unnamed cell lines
T1 sequence (Q96SW2 whole entry partner, species assumed): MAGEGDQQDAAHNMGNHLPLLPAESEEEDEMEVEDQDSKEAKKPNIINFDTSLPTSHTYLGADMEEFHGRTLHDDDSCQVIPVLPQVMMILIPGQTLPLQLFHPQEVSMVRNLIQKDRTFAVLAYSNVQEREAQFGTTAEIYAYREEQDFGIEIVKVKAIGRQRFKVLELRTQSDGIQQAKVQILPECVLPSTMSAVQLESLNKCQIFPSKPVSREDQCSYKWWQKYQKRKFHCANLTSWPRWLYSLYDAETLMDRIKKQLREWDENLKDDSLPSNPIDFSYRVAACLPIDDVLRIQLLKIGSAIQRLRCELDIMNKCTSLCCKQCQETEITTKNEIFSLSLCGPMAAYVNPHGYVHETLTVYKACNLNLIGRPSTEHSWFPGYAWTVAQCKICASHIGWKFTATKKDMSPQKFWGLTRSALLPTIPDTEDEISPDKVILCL
T1 sequence (Q16531 whole entry partner, species assumed): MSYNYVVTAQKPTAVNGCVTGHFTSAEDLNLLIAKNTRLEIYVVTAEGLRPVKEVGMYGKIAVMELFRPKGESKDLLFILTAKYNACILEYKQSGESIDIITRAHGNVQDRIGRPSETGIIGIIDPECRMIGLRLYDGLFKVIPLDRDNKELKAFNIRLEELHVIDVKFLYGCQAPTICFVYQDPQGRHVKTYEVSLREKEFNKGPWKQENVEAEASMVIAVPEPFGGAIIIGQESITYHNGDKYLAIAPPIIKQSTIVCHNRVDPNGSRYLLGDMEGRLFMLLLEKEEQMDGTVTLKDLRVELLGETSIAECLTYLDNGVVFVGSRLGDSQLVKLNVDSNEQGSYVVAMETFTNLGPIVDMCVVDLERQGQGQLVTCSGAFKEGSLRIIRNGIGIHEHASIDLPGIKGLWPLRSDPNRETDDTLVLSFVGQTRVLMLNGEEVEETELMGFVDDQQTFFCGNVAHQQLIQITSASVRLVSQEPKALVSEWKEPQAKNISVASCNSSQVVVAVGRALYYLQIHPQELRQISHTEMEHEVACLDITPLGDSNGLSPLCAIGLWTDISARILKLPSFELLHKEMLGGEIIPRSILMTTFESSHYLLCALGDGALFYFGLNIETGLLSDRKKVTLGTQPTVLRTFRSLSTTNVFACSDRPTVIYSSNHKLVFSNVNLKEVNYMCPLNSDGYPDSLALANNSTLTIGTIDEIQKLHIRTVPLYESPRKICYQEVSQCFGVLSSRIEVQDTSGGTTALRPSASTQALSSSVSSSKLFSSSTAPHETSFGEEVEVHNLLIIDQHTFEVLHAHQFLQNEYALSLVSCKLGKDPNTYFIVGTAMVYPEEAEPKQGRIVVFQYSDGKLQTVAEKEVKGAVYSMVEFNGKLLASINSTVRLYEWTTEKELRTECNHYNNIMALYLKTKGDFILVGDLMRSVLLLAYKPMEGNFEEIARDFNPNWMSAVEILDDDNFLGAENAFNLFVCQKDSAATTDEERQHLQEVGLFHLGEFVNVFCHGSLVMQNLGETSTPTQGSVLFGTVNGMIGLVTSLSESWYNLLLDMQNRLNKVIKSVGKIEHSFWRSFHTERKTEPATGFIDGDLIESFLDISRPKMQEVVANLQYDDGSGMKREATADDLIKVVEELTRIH
T1 sequence (Q9UJQ4 whole entry, species assumed): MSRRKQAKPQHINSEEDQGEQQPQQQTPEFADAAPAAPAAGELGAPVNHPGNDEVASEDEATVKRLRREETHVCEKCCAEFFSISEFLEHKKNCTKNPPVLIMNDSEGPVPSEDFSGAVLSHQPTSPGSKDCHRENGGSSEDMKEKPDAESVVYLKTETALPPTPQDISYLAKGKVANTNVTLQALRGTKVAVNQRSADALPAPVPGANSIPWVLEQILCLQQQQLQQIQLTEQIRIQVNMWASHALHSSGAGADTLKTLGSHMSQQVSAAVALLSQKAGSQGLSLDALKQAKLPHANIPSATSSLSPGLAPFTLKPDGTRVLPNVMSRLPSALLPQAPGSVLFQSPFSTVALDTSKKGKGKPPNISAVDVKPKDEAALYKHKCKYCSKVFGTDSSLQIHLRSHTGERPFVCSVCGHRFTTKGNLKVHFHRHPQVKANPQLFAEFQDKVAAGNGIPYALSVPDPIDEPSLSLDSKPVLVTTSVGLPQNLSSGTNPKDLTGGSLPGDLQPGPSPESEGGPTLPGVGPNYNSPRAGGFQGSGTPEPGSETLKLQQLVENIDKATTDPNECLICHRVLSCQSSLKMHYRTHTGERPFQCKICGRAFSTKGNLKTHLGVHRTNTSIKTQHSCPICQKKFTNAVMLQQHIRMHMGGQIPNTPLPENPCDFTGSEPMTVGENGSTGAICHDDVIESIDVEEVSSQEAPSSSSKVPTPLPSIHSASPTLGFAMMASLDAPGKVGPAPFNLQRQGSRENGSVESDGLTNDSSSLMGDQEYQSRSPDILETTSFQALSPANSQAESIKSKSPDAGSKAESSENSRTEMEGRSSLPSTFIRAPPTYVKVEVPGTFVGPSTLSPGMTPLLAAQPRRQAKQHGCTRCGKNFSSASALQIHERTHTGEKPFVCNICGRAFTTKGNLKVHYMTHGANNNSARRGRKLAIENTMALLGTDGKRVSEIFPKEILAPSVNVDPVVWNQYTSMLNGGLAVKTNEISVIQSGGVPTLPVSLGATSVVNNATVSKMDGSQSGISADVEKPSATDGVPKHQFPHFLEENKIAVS
Source text: These drugs bind to cereblon and promote the degradation of novel (neomorphic) substrates.

[3] = Turnover in liver microsomes and hepatocytes; type: in vitro ADME; details: across species
Source text: No human unique metabolites were observed. Although it is not thought to be formed via enzymatic conversion, the epimer Compound B was formed to a limited extent in animals.

[4] = Solubility in phosphate buffer; type: physicochemical; details: aqueous buffer; phosphate buffer at pH 7.4
progesterone receptor = progesterone receptor (Homo sapiens, UniProt P06401); assay: Secondary pharmacodynamics binding, progesterone receptor; details: in vitro
Sequence of progesterone receptor (P06401 whole entry, species assumed): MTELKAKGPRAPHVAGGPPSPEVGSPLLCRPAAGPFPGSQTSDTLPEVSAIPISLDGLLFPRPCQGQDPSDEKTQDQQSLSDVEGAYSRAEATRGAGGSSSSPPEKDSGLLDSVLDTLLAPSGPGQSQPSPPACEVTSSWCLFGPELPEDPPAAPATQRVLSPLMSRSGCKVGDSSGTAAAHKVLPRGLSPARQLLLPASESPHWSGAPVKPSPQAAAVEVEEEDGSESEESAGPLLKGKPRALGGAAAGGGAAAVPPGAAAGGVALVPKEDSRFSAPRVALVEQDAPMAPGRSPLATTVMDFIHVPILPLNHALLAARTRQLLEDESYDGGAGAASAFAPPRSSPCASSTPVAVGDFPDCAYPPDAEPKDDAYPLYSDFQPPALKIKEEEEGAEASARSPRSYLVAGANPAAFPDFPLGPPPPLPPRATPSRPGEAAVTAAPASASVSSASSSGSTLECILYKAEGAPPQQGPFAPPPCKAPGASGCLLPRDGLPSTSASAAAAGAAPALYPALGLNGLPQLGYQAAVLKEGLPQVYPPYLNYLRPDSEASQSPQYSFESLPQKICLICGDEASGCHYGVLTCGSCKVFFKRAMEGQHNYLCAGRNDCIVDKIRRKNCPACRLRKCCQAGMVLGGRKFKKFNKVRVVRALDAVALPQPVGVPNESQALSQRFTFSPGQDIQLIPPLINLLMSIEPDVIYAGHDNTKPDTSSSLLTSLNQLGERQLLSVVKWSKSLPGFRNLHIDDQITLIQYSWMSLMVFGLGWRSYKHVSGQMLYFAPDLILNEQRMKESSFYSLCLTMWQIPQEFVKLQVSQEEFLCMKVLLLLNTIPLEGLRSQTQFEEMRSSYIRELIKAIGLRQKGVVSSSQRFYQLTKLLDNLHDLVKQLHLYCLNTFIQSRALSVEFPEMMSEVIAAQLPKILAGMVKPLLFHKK

[5] = Clinical Pharmacology Study: adverse events in healthy volunteers
Source text: The severity of adverse events was graded according to the National Cancer Institute Common Terminology Criteria for Adverse Events (NCI CTCAE) version 5.0.

clinical = details: human, in vivo; for AUC: AUCtau
Description: Study Design: In the FIH Study: Part A is a Phase I monotherapy dose escalation, and Part B is a Phase 2 monotherapy expansion at 2 RP2D doses (200 mg QD, 500 mg QD).

reticulocytes = assay: Rat micronucleus test; type: in vivo; details: 400, 800, 1600 mg/kg/day, two days
ER = molecular target: T2, ER (Homo sapiens, UniProt P03372); assay: ER degradation in ER+ cell lines (MCF7); type: cell-based; set-up: endogenous in cells; host or cells: MCF7 (and a panel of unnamed ER+ cell lines); details: MCF7 cells
T2 sequence (P03372 1-595): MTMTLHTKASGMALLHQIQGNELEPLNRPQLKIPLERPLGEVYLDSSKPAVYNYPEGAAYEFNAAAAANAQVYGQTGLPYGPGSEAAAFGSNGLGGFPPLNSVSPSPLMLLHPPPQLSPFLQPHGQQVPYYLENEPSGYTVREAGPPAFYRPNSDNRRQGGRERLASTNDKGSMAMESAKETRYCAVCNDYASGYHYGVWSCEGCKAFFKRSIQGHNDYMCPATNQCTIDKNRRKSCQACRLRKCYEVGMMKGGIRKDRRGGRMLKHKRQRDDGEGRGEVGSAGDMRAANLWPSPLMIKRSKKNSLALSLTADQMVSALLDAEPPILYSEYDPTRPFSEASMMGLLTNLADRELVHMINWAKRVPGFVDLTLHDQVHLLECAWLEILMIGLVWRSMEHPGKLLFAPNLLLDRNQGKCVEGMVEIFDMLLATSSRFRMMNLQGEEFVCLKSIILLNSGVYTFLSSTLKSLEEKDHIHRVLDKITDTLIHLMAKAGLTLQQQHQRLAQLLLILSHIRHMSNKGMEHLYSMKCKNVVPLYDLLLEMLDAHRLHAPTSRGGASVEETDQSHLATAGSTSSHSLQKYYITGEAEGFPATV

[6] = tested on: ER+/HER2− locally advanced/metastatic breast cancer; assay: FIH Study Part B (VERITAC): clinical benefit rate, PFS; type: in vivo, human
[7] = Plasma protein binding, mouse; type: in vitro ADME; details: read-out: free fraction
ERP = ERP (Homo sapiens, UniProt Q92731); assay: Secondary pharmacodynamics binding, ERP; details: in vitro
Sequence of ERP (Q92731 whole entry): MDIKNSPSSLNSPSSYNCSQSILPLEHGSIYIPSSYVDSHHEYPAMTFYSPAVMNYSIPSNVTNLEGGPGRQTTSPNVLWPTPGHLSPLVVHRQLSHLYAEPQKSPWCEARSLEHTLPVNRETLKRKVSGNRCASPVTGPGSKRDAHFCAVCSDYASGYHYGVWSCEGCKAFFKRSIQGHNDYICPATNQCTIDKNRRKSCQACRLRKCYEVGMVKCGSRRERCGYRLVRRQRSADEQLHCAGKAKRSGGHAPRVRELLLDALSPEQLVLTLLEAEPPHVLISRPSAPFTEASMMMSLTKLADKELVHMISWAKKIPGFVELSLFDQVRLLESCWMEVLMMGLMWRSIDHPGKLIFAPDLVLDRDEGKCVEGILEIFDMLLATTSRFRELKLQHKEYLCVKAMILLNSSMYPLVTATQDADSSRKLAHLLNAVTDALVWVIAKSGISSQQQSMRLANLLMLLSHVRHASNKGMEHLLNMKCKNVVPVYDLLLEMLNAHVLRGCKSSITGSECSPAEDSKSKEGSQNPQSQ

[8] = 3-month GLP oral toxicity study in dogs; type: in vivo, dog; details: for Cmax / AUC(0-t): plasma, po, Day 91; for AUC(0-t): read-out: AUC0-24
Description: Male and female Beagle dogs, 4/sex/group, were administered 0 (vehicle), 10, 30, or 90 mg/kg/day. Assessment of toxicity was based on clinical observations, BWs, food consumption, ophthalmology, ECG evaluations, and clinical and anatomic pathology.

T47D cells = assay: Live-cell imaging proliferation, T47D; type: cell-based; details: Homo sapiens, 144 h, up to 6 days
Source text: Full growth of the cells over this time period is shown by extent of cell confluence with dimethyl sulfoxide (DMSO).

[9] = Beagle, dog, female dogs, 90 mg/kg/day
[10] = Beagle, dog, male dogs, 90 mg/kg/day

SMILES: O=C1CC[C@H](N2Cc3cc(N4CCN(CC5CCN(c6ccc([C@@H]7c8ccc(O)cc8CC[C@@H]7c7ccccc7)cc6)CC5)CC4)ccc3C2=O)C(=O)N1 [Compound A, (S)-3-(5-(4-((1-(4-((1R,2S)-6-hydroxy-2-phenyl-1,2,3,4-tetrahydronaphthalen-1-yl)phenyl)piperidin-4-yl)methyl)piperazin-1-yl)-1-oxoisoindolin-2-yl)piperidine-2,6-dione]
- increase in AUC in fed dogs [1]: 3 fold
- bioavailability ([2]; mouse, dog, monkey, po, range across species): 27 to 65%
- half-life ([2]; mouse, dog, monkey, range across species): 2.1 to 8.2 h
- Vd ([2]; intravenous, read-out: VSS): 6 L/kg
- degradation of SALL4 (SALL4; a different cell line): no SALL4 degradation
- degradation of SALL4 (SALL4; one cell line): some degradation activity
- turnover in liver microsomes and hepatocytes [3]: relatively low turnover
- solubility [4]: 1.5 µg/mL (≈ 2.07 µM)
- binding (progesterone receptor): bound
- TRAEs of Grade 2 or higher ([5]; 200 mg, healthy participants): no TRAEs of Grade 2 or higher were reported
- tolerability ([5]; 200 mg, healthy participants): well-tolerated
- Grade 1 TEAEs ([5]; Fast/Fed cohort): 21.4%
- Grade 2 TEAEs ([5]; Fast/Fed cohort): 14.3%
- Grade 3 or higher TEAEs ([5]; Fast/Fed cohort): No participants reported Grade 3 or higher TEAEs
- TEAE ligament sprain ([5]; Fast/Fed cohort n=14): 14.3%
- TRAE pollakiuria ([5]; Fast/Fed cohort n=14): 7.1%
- Grade 1 TEAEs ([5]; PPI cohort): 47.1%
- Grade 2 TEAEs ([5]; PPI cohort): 5.9%
- Grade 3 or higher TEAEs ([5]; PPI cohort): No participants reported Grade 3 or higher TEAEs
- TRAEs nausea, headache, pruritus, each ([5]; PPI cohort): 5.9%
- TEAE Headache ([5]; PPI cohort n=17): 29.4%
- participants with at least 1 TRAE ([5]; PPI cohort n=17): 11.8%
- participants with TEAE leading to discontinuation ([5]; PPI cohort, due to COVID): One
- SAEs, SARs, deaths ([5]; all cohorts): No SAEs, SARs or deaths were reported
- participants with at least 1 TRAE ([5]; all cohorts): 3 of 47 participants
- participants with TEAEs ([5]; all cohorts, 200 mg): 15 of 47 participants
- TRAEs ([5]; rBA cohort n=16): No participants reported a TRAE
- participants with a TEAE (dizziness, Grade 1) ([5]; rBA cohort n=16): 6.3%
- half-life (clinical; 30 mg): 31 h
- Tmax (clinical; 30 mg, Tmax): 4 h
- half-life (clinical; 60 mg): 33 h
- Tmax (clinical; 60 mg, Tmax): 6 h
- half-life (clinical; 100 mg): 29 h
- Tmax (clinical; 100 mg, Tmax): 5.8 h
- half-life (clinical; 120 mg): 27 h
- Cmax (clinical; 120 mg): 404 ng/mL
- Tmax (clinical; 120 mg, Tmax): 5.9 h
- half-life (clinical; 180 mg): 26 h
- Cmax (clinical; 180 mg): 555 ng/mL
- Tmax (clinical; 180 mg, Tmax): 6 h
- half-life (clinical; 200 mg): 23 h
- AUC (clinical; 200 mg): 9110 ng·h/mL
- Cmax (clinical; 200 mg): 534 ng/mL
- Tmax (clinical; 200 mg, Tmax): 5.8 h
- AUC(0-t) (clinical; 250 mg, AUCtau (AUC0-8)): 2920 ng·h/mL
- AUC(0-t) (clinical; 250 mg, AUCtau (AUC0-12)): 20600 ng·h/mL
- Tmax (clinical; 250 mg, Tmax): 6.9 h
- half-life (clinical; 360 mg): 28 h
- Tmax (clinical; 360 mg, Tmax): 5.8 h
- half-life (clinical; 500 mg): 28 h
- Cmax (clinical; 500 mg): 1050 ng/mL
- Tmax (clinical; 500 mg, Tmax): 4.9 h
- half-life (clinical; 700 mg): 12.4 h
- AUC (clinical; 700 mg): 19600 ng·h/mL
- Cmax (clinical; 700 mg): 1450 ng/mL
- Tmax (clinical; 700 mg, Tmax): 5.8 h
- Tmax (clinical; Tmax): 4.1 h
- Tmax (clinical; median Tmax across dose levels): 4 to 7 h
- chromosomal damage in reticulocytes (reticulocytes): did not induce chromosomal damage
- ER degradation with excess lenalidomide or with carfilzomib (ER): No degradation of ER
- maximum ER degradation (ER): > 90%
- median progression-free survival ([6]; 200 mg QD, all evaluable, 95% CI 1.8-7.8): 3.5 months
- PFS ([6]; ITT (n=71)): 3.7 months
- fraction unbound at 1 μM [7]: 0.061
- binding (ERP): bound
- NOAEL at 3 months ([8]; Beagle, dog, in vivo, oral, male dogs, 3 months): 90 mg/kg/day
- Cmax [8, 9]: 4250 ng/mL
- AUC(0-t) [8, 9]: 73100 ng·h/mL
- Cmax [8, 10]: 4880 ng/mL
- AUC(0-t) [8, 10]: 83500 ng·h/mL
- ECG intervals ([8]; dog, 90 mg/kg/day, Day 85): nonadverse increases in QT-, QTc-, and PR-intervals
- NOAEL ([8]; female dogs, 3 months): A NOAEL was not identified
- GI50 (T47D cells): 1.7 nM
